Reference: patent US9394254B2, “Antibiotic and anti-parasitic agents that modulate class II fructose 1,6-bisphosphate aldolase” (priority 2013, dated 2016)

Assays:
[1] = biological target: T1, MtFBA (Mycobacterium tuberculosis (strain ATCC 25618 / H37Rv), UniProt P9WQA3); assay type: binding; conditions: 25° C.
[2] = biological target: class I FBA (Oryctolagus cuniculus (Rabbit), UniProt P00883); experiment: Inhibition of class I FBA from rabbit muscle; assay type: biochemical; conditions: concentrations as high as 1 mM
[3] = biological target: T1, MtFBA; experiment: MtFBA enzyme inhibition; assay type: biochemical; conditions: for % Inhibition at 1 mM: 1 mM compound
[4] = Calorimetric titration into MtFBA buffer with 200 μM ZnCl2 (no enzyme); assay type: binding; conditions: 1 mM compound titrated into MtFBA buffer with 200 μM ZnCl2, 25° C.
Procedure: FIG. 5 provides data from the calorimetric titration of HCA. […] Top graphs represent raw heat data and bottom graphs are integrated heat peaks gained at 25° C.
Top graphs represent raw heat data and bottom graphs are integrated heat peaks gained at 25° C. from 25 injections of Regis 5 into 170 μL of 20 mM Tricine pH 8.0, 100 mM NaCl, and either (a) 700 μM MtFBA with 100 μM ZnCl2 or (b) 200 μM ZnCl2. Data sets were collected in duplicate, analyzed with NanoAnalyze™ software, and fit to an independent model concurrently with a bank constant model to adjust for a heat of dilution.

[5] = biological target: class IIa FBA isolated from E. coli (Escherichia coli (strain K12), UniProt P0AB71); experiment: Inhibition of class IIa FBA from E. coli; assay type: biochemical; conditions: 25 μM HCA
Procedure: Class II FBAs can be broken down into two families (a/b) whose distribution among bacterium is independent of Gram staining determined phylogenetic groups. In this illustration, a single concentration of HCA at 25 μM was tested for the inhibition of class IIa FBA isolated from E. coli and class IIb FBA originating from methicillin-resistant S. aureus (MRSA).
Error bars represent standard deviations from the average.

[6] = system: class I FBA; conditions: human muscle, concentrations as high as 1 mM

class IIa FBA isolated from E. coli, sequence (P0AB71 whole entry, looked up): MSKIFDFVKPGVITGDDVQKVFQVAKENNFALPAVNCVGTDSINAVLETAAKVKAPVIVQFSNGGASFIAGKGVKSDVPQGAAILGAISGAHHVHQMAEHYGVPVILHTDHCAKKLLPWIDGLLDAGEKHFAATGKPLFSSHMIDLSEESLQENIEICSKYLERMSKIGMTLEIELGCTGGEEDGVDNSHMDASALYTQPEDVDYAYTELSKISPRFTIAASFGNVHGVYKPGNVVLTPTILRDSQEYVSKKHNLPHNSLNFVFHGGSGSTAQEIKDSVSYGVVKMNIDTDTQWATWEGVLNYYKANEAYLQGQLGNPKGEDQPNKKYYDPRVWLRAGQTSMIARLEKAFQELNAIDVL
class I FBA (Oryctolagus cuniculus (Rabbit), UniProt P00883), sequence (P00883 whole entry, looked up): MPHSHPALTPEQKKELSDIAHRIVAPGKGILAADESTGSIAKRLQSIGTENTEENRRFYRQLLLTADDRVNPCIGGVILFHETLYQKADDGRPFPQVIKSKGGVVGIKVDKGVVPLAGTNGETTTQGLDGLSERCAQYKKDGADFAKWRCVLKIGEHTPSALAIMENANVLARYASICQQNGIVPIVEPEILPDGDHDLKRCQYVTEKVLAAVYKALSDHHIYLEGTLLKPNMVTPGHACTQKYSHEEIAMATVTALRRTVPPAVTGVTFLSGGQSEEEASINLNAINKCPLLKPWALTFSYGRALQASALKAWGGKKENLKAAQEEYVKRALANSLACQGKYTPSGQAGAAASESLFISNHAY

## O=C(O)c1ccc2cccc(O)c2n1 [Compound 5]
[1]
  n (ITC stoichiometry): 0.94±0.14
[1]; ITC
  ΔH: -6.867 ± 0.139 kcal/mol
  ΔS: 2.44±3.12 J mol^−1 K^−1
[1]; ITC, 5 mM compound into 700 μM MtFBA, 20 mM Tricine pH 8.0, 100 mM NaCl, 100 μM ZnCl2, read-out: dissociation constant Kd
  Kd: 6.94 ± 0.97 µM
[2]
  inhibition of class I FBA: no inhibitory affects
[3]; FIG. 6A inset, serial dilutions of compound
  IC50: 17 ± 2.1 µM
[3]; SAR table
  IC50: 14 ± 2 µM
[3]; read-out: % Inhibition at 1 mM
  inhibition at 1000 µM: 95 ± 4.1%
[4]
  binding to buffer Zn(II): no appreciable binding
[5]
  % inhibition: 42.2±2.8%
[6]
  inhibition of class I FBA: no inhibitory affects

## O=C(O)c1ccc2cc(F)cc(O)c2n1 [Compound 6F-HCA, 6-fluoro-8-hydroxyquinoline-2-carboxylic acid]
[3]; fluorine at position 6 versus HCA
  increase in potency toward the enzyme relative to HCA: 50%

## Oc1cccc2cccnc12 [Compound 6]
[3]
  % Inhibition at 1 mM: 54 ± 18%
[3]; SAR table
  IC50: 300 ± 67 µM

## Nc1cccc2cccnc12 [Compound 18]
[3]
  % Inhibition at 1 mM: 68 ± 2.2%
[3]; SAR table
  IC50: 79 ± 10 µM

## CS(=O)(=O)Nc1ccc2cccc(O)c2n1 [Compound 34]
[3]
  % Inhibition at 1 mM: 12 ± 5.4%
[3]; SAR table
  IC50: 570 ± 87 µM
